# Reference: patent US9556159B2, “Renin inhibitor” (MITSUBISHI TANABE PHARMA CORPORATION, priority 2012, dated 2017)
# Molecular target: T1, Recombinant human renin (Homo sapiens, UniProt P00797)
# T1 sequence (P00797 67-406): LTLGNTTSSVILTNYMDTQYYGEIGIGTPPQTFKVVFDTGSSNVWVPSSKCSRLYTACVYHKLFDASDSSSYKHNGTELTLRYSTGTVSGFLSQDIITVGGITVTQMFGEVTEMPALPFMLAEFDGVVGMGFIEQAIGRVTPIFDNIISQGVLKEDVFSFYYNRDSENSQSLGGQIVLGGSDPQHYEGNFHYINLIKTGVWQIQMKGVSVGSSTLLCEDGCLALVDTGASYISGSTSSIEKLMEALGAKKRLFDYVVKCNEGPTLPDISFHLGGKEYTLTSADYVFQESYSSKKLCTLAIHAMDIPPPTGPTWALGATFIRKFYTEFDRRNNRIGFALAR
# Experiment: Inhibitory activity against human renin (fluorogenic peptide substrate)
# Assay type: biochemical
# Settings: 50% inhibitory concentration (IC50) against human renin, 37° C. for 1 hour
# Procedure: Inhibitory Activity Against Human Renin
# A substrate of synthetic peptide (Nma-KHPFH LVIHK(Dnp)-NH2) and test compound were mixed, and fluorescence intensity was assayed using a fluorophotometer before starting an enzymatic reaction (exciting wavelength: 340 nm, measuring wavelength: 460 nm). Recombinant human renin was added and the mixture was incubated at 37° C. for 1 hour, and the fluorescence intensity was measured after the reaction using a fluorophotometer (exciting wavelength: 340 nm, measuring wavelength: 460 nm).
row,Compound,IC50 [nM]
1,COc1ccc2nc([C@@H](C)N(C(=O)[C@H]3CNCCO3)C3CC3)cc(CCCNC=O)c2c1 [Example 157],3.4
2,COC(=O)NCCCn1nc([C@@H](C)N(C(=O)[C@H]2CNCCO2)C2CC2)cc1-c1ccc(F)cc1 [Example 158],0.3
3,COC(=O)NCCCn1nc([C@@H](C)N(C(=O)[C@H]2CNCCO2)C2CC2)cc1-c1ccccc1 [Example 159],0.2
4,COCCCCn1cc([C@@H](C)N(C(=O)[C@H]2CNCCO2)C2CC2)nc1-c1ccccc1 [Example 160],0.8
5,CCc1nc([C@@H](C)N(C(=O)[C@H]2CNCCO2)C2CC2)cc2c1c(C#N)cn2CCCOC [Example 161],0.7
6,COC(=O)NCCCn1cc([C@@H](C)N(C(=O)[C@H]2CNCCO2)C2CC2)c2ncc(C(C)C)nc21 [Example 162],0.6
7,COC(=O)NCCCn1cc([C@@H](C)N(C(=O)[C@H]2CNCCO2)C2CC2)nc1-c1ccc(C)cc1 [Example 163],0.4
8,COC(=O)NCCCn1cc([C@@H](C)N(C(=O)[C@H]2CNCCO2)C2CC2)nc1-c1ccc(C(F)(F)F)cc1 [Example 164],0.6
9,COC(=O)NCCCn1cc([C@@H](C)N(C(=O)[C@H]2CNCCO2)C2CC2)nc1-c1cccc(F)c1 [Example 165],0.6
10,COC(=O)NCCCn1nc([C@@H](C)N(C(=O)[C@H]2CNCC(C)(C)O2)C2CC2)c2ccc(C)nc21 [Example 166],7
11,COC(=O)NCCCc1cc([C@@H](C)N(C(=O)[C@H]2CNCCO2)C2CC2)nc2ccoc12 [Example 167],4.1
12,COC(=O)NCCCn1cc([C@@H](C)N(C(=O)[C@H]2CNCCO2)C2CC2)nc1-c1ccccc1F [Example 168],0.3
13,COC(=O)NCCCn1cc([C@@H](C)N(C(=O)[C@H]2CNCCO2)C2CC2)nc1-c1ccccc1Cl [Example 169],0.3
14,COC(=O)NCCCn1cc([C@@H](C)N(C(=O)[C@H]2CNCCO2)C2CC2)nc1-c1ccc(Cl)cc1 [Example 170],0.4
15,COC(=O)NCCCn1cc([C@@H](C)N(C(=O)[C@H]2CNCCO2)C2CC2)nc1-c1ccc(F)cc1 [Example 171],0.4
16,COC(=O)NCCCn1nc([C@@H](C)N(C(=O)[C@H]2CNCCO2)C2CC2)cc1-c1cccc(F)c1 [Example 172],0.4
17,COC(=O)NCCCn1nc([C@@H](C)N(C(=O)[C@H]2CNCCO2)C2CC2)cc1-c1ccccc1F [Example 173],0.3
18,COC(=O)NCCCn1nc([C@@H](C)N(C(=O)[C@H]2CNCCO2)C2CC2)cc1-c1ccc(OC)nc1 [Example 174],0.4
19,COC(=O)NCCCn1cc([C@@H](C)N(C(=O)[C@H]2CNCCO2)C2CC2)nc1-c1cccc(Cl)c1 [Example 175],0.3
20,COC(=O)NCCCn1nc([C@@H](C)N(C(=O)[C@H]2CNCCO2)C2CC2)cc1-c1cccc(C)n1 [Example 176],0.4
21,COC(=O)NCCCn1nc([C@@H](C)N(C(=O)[C@H]2CNCCO2)C2CC2)cc1-c1ccc(F)cn1 [Example 177],1
22,COC(=O)NCCCn1cc([C@@H](C)N(C(=O)[C@H]2CNCCO2)C2CC2)nc1-c1cccc(C)c1 [Example 178],0.3

row,Compound,IC50 [nM]
1,COC(=O)NCCCn1cc([C@@H](C)N(C(=O)[C@H]2CNCCO2)C2CC2)nc1-c1ccccc1C [Example 179],0.3
2,COC(=O)NCCCn1nc([C@@H](C)N(C(=O)[C@H]2CNCCO2)C2CC2)cc1-c1ccc(C)nc1 [Example 180],0.6
3,COC(=O)NCCCn1cc([C@@H](C)N(C(=O)[C@H]2CNCCO2)C2CC2)nc1C(C)C [Example 181],0.7
4,COC(=O)NCCCc1nc([C@@H](C)N(C(=O)[C@H]2CNCCO2)C2CC2)cn1-c1ccccc1 [Example 182],0.7
5,COC(=O)NCCCc1cc([C@@H](C)N(C(=O)[C@H]2CNCCO2)C2CC2)nn1-c1ccccc1 [Example 183],0.3
6,COC(=O)NCCCn1nc([C@@H](C)N(C(=O)[C@H]2CNCCO2)C2CC2)cc1-c1ccc(C)cn1 [Example 184],0.5
7,COC(=O)NCCCn1nc([C@@H](C)N(C(=O)[C@H]2CNCCO2)C2CC2)cc1-c1ncccc1F [Example 185],0.3
8,COC(=O)NCCCn1nc([C@@H](C)N(C(=O)[C@H]2CNCCO2)C2CC2)cc1-c1cccnc1 [Example 186],0.4
9,COC(=O)NCCCn1nc([C@@H](C)N(C(=O)[C@H]2CNCCO2)C2CC2)cc1-c1ncccc1C [Example 187],0.5
10,COC(=O)NCCCn1nc([C@@H](C)N(C(=O)[C@H]2CNCCO2)C2CC2)cc1C(C)C [Example 188],0.5
11,COC(=O)NCCCn1nc([C@@H](C)N(C(=O)[C@H]2CNCCO2)C2CC2)c2c1CCCC2 [Example 189],0.9
12,COC(=O)NCCCn1nc([C@@H](C)N(C(=O)[C@H]2CNCCO2)C2CC2)c2c1CCC2 [Example 190],1.2
13,COC(=O)NCCCn1nc([C@@H](C)N(C(=O)[C@H]2CNCCO2)C2CC2)cc1C(C)(C)C [Example 191],0.7
14,COC(=O)NCCCn1nc([C@@H](C)N(C(=O)[C@H]2CNCCO2)C2CC2)c(F)c1-c1ccccc1 [Example 192],0.2
15,COC(=O)NCC(F)Cn1nc([C@@H](C)N(C(=O)[C@H]2CNCCO2)C2CC2)cc1-c1ccccc1 (stereo partly drawn) [Example 193],0.4
16,C[C@H](c1cn(Cc2ccccc2)c(-c2ccccc2)n1)N(C(=O)[C@H]1CNCCO1)C1CC1 [Example 194],3
17,COc1cccc(Cn2cc([C@@H](C)N(C(=O)[C@H]3CNCCO3)C3CC3)nc2-c2ccccc2)c1 [Example 195],3.6
18,CCc1nc([C@@H](C)N(C(=O)[C@H]2CNC[C@@H](COC)O2)C2CC2)cc2c1ccn2CCCOC [Example 196],0.7
19,COC(=O)NCCCc1cc([C@@H](C)N(C(=O)[C@H]2CNCCO2)C2CC2)sc1-c1ccccc1 [Example 197],0.2
20,COC(=O)NCC(F)Cn1nc([C@@H](C)N(C(=O)[C@H]2CNCCO2)C2CC2)cc1-c1ccccc1 (stereo partly drawn) [Example 198],0.2
21,COC(=O)NCC(F)Cn1nc([C@@H](C)N(C(=O)[C@H]2CNCCO2)C2CC2)cc1-c1ccccc1 (stereo partly drawn) [Example 199],0.2
22,CCCCCn1cc([C@@H](C)N(C(=O)[C@H]2CNCCO2)C2CC2)nc1-c1ccccc1 [Example 200],4.5

row,Compound,IC50 [nM]
1,COC[C@@H]1CNC[C@H](C(=O)N(C2CC2)[C@H](C)c2cc(OC)c3ccccc3n2)O1 [Example 201],4.1
2,COC(=O)NCCCn1cc([C@@H](C)N(C(=O)[C@H]2CNC[C@@H](C)O2)C2CC2)nc1-c1ccccc1 [Example 202],0.2
3,COC(=O)NCCCn1cc([C@@H](C)N(C(=O)[C@H]2CNC[C@@H](C(F)(F)F)O2)C2CC2)nc1-c1ccccc1 [Example 203],0.5
4,COc1ccc(Cn2cc([C@@H](C)N(C(=O)[C@H]3CNCCO3)C3CC3)nc2-c2ccccc2)cc1 [Example 204],7.1
5,COCCCCn1nc([C@@H](C)N(C(=O)[C@H]2CNCCO2)C2CC2)cc1-c1ccccn1 [Example 205],1.4
6,COC(=O)NCCCc1sc([C@@H](C)N(C(=O)[C@H]2CNCCO2)C2CC2)nc1-c1ccccc1 [Example 206],1.5
7,C[C@H](c1cn(Cc2cccc(OC(F)(F)F)c2)c(-c2ccccc2)n1)N(C(=O)[C@H]1CNCCO1)C1CC1 [Example 207],6.9
8,COC(=O)NCCOc1cc([C@@H](C)N(C(=O)[C@H]2CNCCO2)C2CC2)nn1-c1ccccc1 [Example 208],2.3
9,CCn1nc([C@@H](C)N(C(=O)[C@H]2CNCCO2)C2CC2)cc1CCCNC(=O)OC [Example 209],2.1
10,COC(=O)NCCCc1cc([C@@H](C)N(C(=O)[C@H]2CNCCO2)C2CC2)nn1C1CCCCC1 [Example 210],0.2
11,COC(=O)NCCCc1cc([C@@H](C)N(C(=O)[C@H]2CNCCO2)C2CC2)nn1-c1ccccc1F [Example 211],0.5
12,CCc1cc([C@@H](C)N(C(=O)[C@H]2CNCCO2)C2CC2)nc2ccccc12 [Example 212],4.6
13,COC(=O)NCCCc1cc([C@@H](C)N(C(=O)[C@H]2CNCCO2)C2CC2)nn1C(C)(C)C [Example 213],0.3
14,C[C@H](c1cn(Cc2cccc(F)c2)c(-c2ccccc2)n1)N(C(=O)[C@H]1CNCCO1)C1CC1 [Example 214],2.8
15,COC(=O)NCCCn1cc([C@@H](C)N(C(=O)[C@H]2CNCCO2)C2CC2)nc1C(C)(C)C [Example 215],0.5
16,COC(=O)NCCCn1nc([C@@H](C)N(C(=O)[C@H]2CNCCO2)C2CC2)c(F)c1-c1ccccn1 [Example 216],0.1
17,CCc1c([C@@H](C)N(C(=O)[C@H]2CNCCO2)C2CC2)nn(CCCNC(=O)OC)c1-c1ccccn1 [Example 217],1.5
18,COC(=O)NCCCc1nc([C@@H](C)N(C(=O)[C@H]2CNCCO2)C2CC2)sc1-c1ccccc1 [Example 218],1.1
19,COC(=O)NCCCn1cc([C@@H](C)N(C(=O)[C@H]2CNC[C@@H](C(F)(F)F)O2)C2CC2)nc1-c1ccccc1 [Example 219],0.4
20,COC(=O)NCCCn1nc([C@@H](C)N(C(=O)[C@H]2CNCCO2)C2CC2)c(C)c1-c1ccccn1 [Example 220],0.4
21,COC(=O)NCCCc1cc([C@@H](C)N(C(=O)[C@H]2CNCCO2)C2CC2)nn1-c1ccc(F)cc1 [Example 221],0.3
22,COC(=O)NCCCc1cc([C@@H](C)N(C(=O)[C@H]2CNCCO2)C2CC2)nn1-c1ccccc1C [Example 222],0.5
